Legend:
[1] = target: T1, Endothelin receptor type B (Rattus norvegicus, UniProt P21451); assay: Concentration required to produce 50% inhibition of binding against ET B receptor obtained from rat brain membrane
T1 sequence (P21451 whole entry): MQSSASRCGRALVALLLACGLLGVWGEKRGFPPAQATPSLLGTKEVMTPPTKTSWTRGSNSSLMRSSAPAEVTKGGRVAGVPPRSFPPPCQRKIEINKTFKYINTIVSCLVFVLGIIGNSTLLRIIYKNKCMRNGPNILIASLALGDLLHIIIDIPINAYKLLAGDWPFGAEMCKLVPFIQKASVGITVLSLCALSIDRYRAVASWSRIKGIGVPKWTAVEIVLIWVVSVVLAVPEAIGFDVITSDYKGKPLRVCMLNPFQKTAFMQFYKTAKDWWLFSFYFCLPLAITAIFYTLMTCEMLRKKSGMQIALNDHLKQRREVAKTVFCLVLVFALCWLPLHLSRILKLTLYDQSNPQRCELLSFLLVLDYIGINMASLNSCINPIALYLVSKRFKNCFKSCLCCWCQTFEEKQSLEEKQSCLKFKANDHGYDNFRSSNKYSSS

Endothelin-1 receptor = target: T2, Endothelin-1 receptor (Rattus norvegicus, UniProt P26684); assay: Concentration required to produce 50% inhibition of binding against ET A receptor obtained from rat thoracic aortic membrane
T2 sequence (P26684 whole entry): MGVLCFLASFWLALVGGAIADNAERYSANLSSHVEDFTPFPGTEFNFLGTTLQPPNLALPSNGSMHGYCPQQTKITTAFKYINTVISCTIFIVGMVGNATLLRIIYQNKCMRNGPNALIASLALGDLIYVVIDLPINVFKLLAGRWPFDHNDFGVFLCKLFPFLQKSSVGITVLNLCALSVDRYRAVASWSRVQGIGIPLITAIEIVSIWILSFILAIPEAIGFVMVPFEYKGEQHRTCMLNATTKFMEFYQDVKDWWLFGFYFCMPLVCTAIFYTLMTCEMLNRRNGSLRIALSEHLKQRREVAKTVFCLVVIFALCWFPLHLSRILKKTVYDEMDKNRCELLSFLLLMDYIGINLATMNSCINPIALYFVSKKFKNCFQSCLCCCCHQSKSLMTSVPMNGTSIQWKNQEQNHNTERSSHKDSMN

Row | Structure (SMILES) | pIC50 [1] | pIC50 (Endothelin-1 receptor)
1 | CC[C@@H](C)[C@H](NC(=O)[C@H](CC(=O)O)NC(=O)[C@H](CC(C)C)NC(=O)[C@H](Cc1cnc[nH]1)NC(=O)[C@H](CS)NC(=O)[C@H](Cc1ccccc1)NC(=O)[C@H](Cc1ccc(O)cc1)NC(=O)[C@@H](NC(=O)[C@H](CS)NC(=O)[C@H](CCC(=O)O)NC(=O)[C@H](CCCCN)NC(=O)[C@H](CC(=O)O)NC(=O)[C@H](CCSC)NC(=O)[C@H](CC(C)C)NC(=O)[C@H](CO)NC(=O)[C@H](CO)NC(=O)[C@H](CS)NC(=O)[C@H](CO)NC(=O)[C@@H](N)CS)C(C)C)C(=O)N[C@H](CCC(N)=O)C(=O)N[C@@H](Cc1c[nH]c2ccccc12)C(=O)O [Endothelin-1 analogue] | 5.59 | 5.27
2 | CC[C@@H](C)[C@H](NC(=O)[C@H](CC(=O)O)NC(=O)[C@H](CC(C)C)NC(=O)[C@H](Cc1cnc[nH]1)NC(=O)[C@H](CS)NC(=O)[C@H](Cc1ccccc1)NC(=O)[C@H](Cc1ccc(O)cc1)NC(=O)[C@@H](NC(=O)[C@H](CS)NC(=O)[C@H](CCC(=O)O)NC(=O)[C@H](CCCCN)NC(=O)[C@H](CC(=O)O)NC(=O)[C@H](CCSC)NC(=O)[C@H](CC(C)C)NC(=O)[C@H](CO)NC(=O)[C@H](CO)NC(=O)[C@H](CS)NC(=O)[C@H](CO)NC(=O)[C@@H](N)CS)C(C)C)C(=O)N[C@H](CC(C)C)C(=O)N[C@@H](Cc1c[nH]c2ccccc12)C(=O)O [Endothelin-1 analogue] | 9.94 | 7.97
3 | CC[C@@H](C)[C@H](NC(=O)[C@H](CC(=O)O)NC(=O)[C@H](CC(C)C)NC(=O)[C@H](Cc1cnc[nH]1)NC(=O)[C@H](CS)NC(=O)[C@H](Cc1ccccc1)NC(=O)[C@H](Cc1ccc(O)cc1)NC(=O)[C@@H](NC(=O)[C@H](CS)NC(=O)[C@H](CCC(=O)O)NC(=O)[C@H](CCCCN)NC(=O)[C@H](CC(=O)O)NC(=O)[C@H](CCSC)NC(=O)[C@H](CC(C)C)NC(=O)[C@H](CO)NC(=O)[C@H](CO)NC(=O)[C@H](CS)NC(=O)[C@H](CO)NC(=O)[C@@H](N)CS)C(C)C)C(=O)N[C@@H](C(=O)N[C@@H](Cc1c[nH]c2ccccc12)C(=O)O)C(C)C [Endothelin-1 analogue] | 9.05 | 9

The next lines start with the values.

Row | pIC50 [1] | pIC50 (Endothelin-1 receptor) | Structure (SMILES)
4 | 9.76 | 8.89 | CC[C@H](C)[C@H](NC(=O)[C@H](CC(=O)O)NC(=O)[C@H](CC(C)C)NC(=O)[C@H](Cc1cnc[nH]1)NC(=O)[C@H](CS)NC(=O)[C@H](Cc1ccccc1)NC(=O)[C@H](Cc1ccc(O)cc1)NC(=O)[C@@H](NC(=O)[C@H](CS)NC(=O)[C@H](CCC(=O)O)NC(=O)[C@H](CCCCN)NC(=O)[C@H](CC(=O)O)NC(=O)[C@H](CCSC)NC(=O)[C@H](CC(C)C)NC(=O)[C@H](CO)NC(=O)[C@H](CO)NC(=O)[C@H](CS)NC(=O)[C@H](CO)NC(=O)[C@@H](N)CS)C(C)C)C(=O)N[C@H](C(=O)N[C@@H](Cc1c[nH]c2ccccc12)C(=O)O)c1ccccc1 [Endothelin-1 analogue]
5 | 8.6 | 6.85 | CC[C@H](C)[C@H](NC(=O)[C@H](CC(=O)O)NC(=O)[C@H](CC(C)C)NC(=O)[C@H](Cc1cnc[nH]1)NC(=O)[C@H](CS)NC(=O)[C@H](Cc1ccccc1)NC(=O)[C@H](Cc1ccc(O)cc1)NC(=O)[C@@H](NC(=O)[C@H](CS)NC(=O)[C@H](CCC(=O)O)NC(=O)[C@H](CCCCN)NC(=O)[C@H](CC(=O)O)NC(=O)[C@H](CCSC)NC(=O)[C@H](CC(C)C)NC(=O)[C@H](CO)NC(=O)[C@H](CO)NC(=O)[C@H](CS)NC(=O)[C@H](CO)NC(=O)[C@@H](N)CS)C(C)C)C(=O)N[C@@H](C(=O)N[C@@H](Cc1c[nH]c2ccccc12)C(=O)O)c1ccccc1 [Endothelin-1 analogue]
6 | 8.6 | 6.07 | CC[C@@H](C)[C@H](NC(=O)[C@H](CC(=O)O)NC(=O)[C@H](CC(C)C)NC(=O)[C@H](Cc1cnc[nH]1)NC(=O)[C@H](CS)NC(=O)[C@H](Cc1ccccc1)NC(=O)[C@H](Cc1ccc(O)cc1)NC(=O)[C@@H](NC(=O)[C@H](CS)NC(=O)[C@H](CCC(=O)O)NC(=O)[C@H](CCCCN)NC(=O)[C@H](CC(=O)O)NC(=O)[C@H](CCSC)NC(=O)[C@H](CC(C)C)NC(=O)[C@H](CO)NC(=O)[C@H](CO)NC(=O)[C@H](CS)NC(=O)[C@H](CO)NC(=O)[C@@H](N)CS)C(C)C)C(=O)N[C@H](Cc1ccccc1)C(=O)N[C@@H](Cc1c[nH]c2ccccc12)C(=O)O [Endothelin-1 analogue]

Reference: BindingDB's records for doi:10.1016/S0960-894X(01)80247-X (1994)
